Earlier results as cited in patent US10806143B2, “Herbicidal composition in granular form” (priority 2009, dated 2020).

Details: at 20° C.

## CCOC(=O)C(Cl)Cc1cc(-n2nc(C)n(C(F)F)c2=O)c(F)cc1Cl (stereo not shown) [carfentrazone-ethyl, ethyl 2-chloro-3-[2-chloro-5-(4-difluoromethyl-3-methyl-5-oxo-4,5-dihydro-[1,2,4]triazol-1-yl)-4-fluorophenyl]propionate]
  water solubility: 22 milligrams per liter
